The values that follow come from patent publication US11802120B2, “Fused cyclic urea derivatives as CRHR2 antagonist” (RaQualia Pharma Inc., priority 2018, dated 2023).

Some results are limits rather than exact numbers.

In this experiment the target is T1, human CRHR2-alpha (Homo sapiens, UniProt Q13324).
T1 sequence (Q13324 1-411): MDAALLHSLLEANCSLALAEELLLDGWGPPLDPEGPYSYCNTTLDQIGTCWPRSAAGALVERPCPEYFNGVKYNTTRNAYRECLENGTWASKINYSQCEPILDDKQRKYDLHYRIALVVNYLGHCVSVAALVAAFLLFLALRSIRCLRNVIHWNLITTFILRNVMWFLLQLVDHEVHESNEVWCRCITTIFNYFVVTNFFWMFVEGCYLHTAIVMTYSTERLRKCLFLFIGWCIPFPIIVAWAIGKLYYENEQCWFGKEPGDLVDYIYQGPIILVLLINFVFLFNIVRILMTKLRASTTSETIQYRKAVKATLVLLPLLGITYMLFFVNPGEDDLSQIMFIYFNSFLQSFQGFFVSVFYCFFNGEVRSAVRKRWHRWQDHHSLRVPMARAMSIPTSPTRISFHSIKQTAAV
Briefly: cAMP functional assay for human CRHR2 (LANCE Ultra cAMP, TR-FRET). The following applies: CHO-K1 cells expressing human CRHR2-alpha, agonist human urocortin2 at EC80, cAMP; read-out: IC50 against CRHR2. The experiment is classed as cell-based. The procedure, abridged:
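First, starved and frozen CHO-K1 cells expressing the receptor are thawed into IBMX-containing HBSS buffer (pH 7.4). Next, compounds are added for 30 min at 25° C. Then agonist at EC80 (urocortin2 or CRF, per receptor) is added for another 30 min, followed by cAMP detection reagents.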
For orientation: TR-FRET usually uses a lanthanide donor and a delayed reading to cut background.
For orientation: IC50 means the concentration needed to halve the response being measured. Take `CNc1ccc(-n2c(=O)n(C[C@H]3CC[C@H](NC(=O)c4cc(Cl)cnc4C(F)F)CC3)c3c(F)cccc32)cn1` [Example 672, 5-chloro-2-(difluoromethyl)-N-((1r,4r)-4-((7-fluoro-3-(6-(methylamino)pyridin-3-yl)-2-oxo-2,3-dihydro-1H-benzo [d]imidazol-1-yl)methyl)cyclo-hexyl)nicotinamide]: the half-maximal inhibitory concentration (IC50) was < 300 nM.
`Cc1cc2cc(-n3c(=O)n(C[C@H]4CC[C@H](NC(=O)c5cc(Cl)cnc5C(F)F)CC4)c4ccccc43)cnc2[nH]1` [Example 673, 5-chloro-2-(difluoromethyl)-N-((1r,4r)-4-((3-(2-methyl-1H-pyrrolo[2,3-b]pyridin-5-yl)-2-oxo-2,3-dihydro-1H-benzo[d]imidazol-1-yl)methyl)cyclohexyl)nicotinamide]: the IC50 is < 300 nM.
In the case of `Cc1cc2cc(-n3c(=O)n(C[C@H]4CC[C@H](NC(=O)c5cc(Cl)cnc5C(F)F)CC4)c4ccccc43)cnc2n1C` [Example 674, 5-chloro-2-(difluoromethyl)-N-((1r,4r)-4-((3-(1,2-dimethyl-1H-pyrrolo[2,3-b]pyridin-5-yl)-2-oxo-2,3-dihydro-1H-benzo[d]imidazol-1-yl)methyl)cyclohexyl)nicotinamide], the IC50 was < 300 nM.
Turning to `COc1ccc(Cl)c(-n2c(=O)n(C[C@H]3CC[C@H](NC(=O)c4cc(Cl)cnc4C(F)F)CC3)c3ncccc32)c1` [Example 675, 5-chloro-N-((1r,4r)-4-((1-(2-chloro-5-methoxyphenyl)-2-oxo-1H-imidazo[4,5-b]pyridin-3(2H)-yl)methyl)cyclohexyl)-2-(difluoro-methyl)nicotinamide], the IC50 is < 300 nM.
Consider `O=C(N[C@H]1CC[C@H](Cn2c(=O)n(-c3cc(F)ccc3Cl)c3cccnc32)CC1)c1cc(Cl)cnc1C(F)F` [Example 676, 5-chloro-N-((1r,4r)-4-((1-(2-chloro-5-fluorophenyl)-2-oxo-1H-imidazo[4,5-b]pyridin-3(2H)-yl)methyl)cyclohexyl)-2-(difluoro-methyl)nicotinamide], for which the IC50 is < 300 nM.
For `Cc1ncc(Cl)cc1C(=O)N[C@H]1CC[C@H](Cn2c(=O)n(-c3cccc(-c4cnn(C)c4)c3)c3ccccc32)CC1` [Example 678, 5-chloro-2-methyl-N-((1r,4r)-4-((3-(3-(1-methyl-1H-pyrazol-4-yl)phenyl)-2-oxo-2,3-dihydro-1H-benzo[d]imidazol-1-yl)methyl)cyclohexyl)nicotinamide], the IC50 is < 300 nM.
For the compound `Cc1ncc(Cl)cc1C(=O)N[C@H]1CC[C@H](Cn2c(=O)n(-c3cncc(-c4cnn(C)c4)c3)c3ccccc32)CC1` [Example 679, 5-chloro-2-methyl-N-((1r,4r)-4-((3-(5-(1-methyl-1H-pyrazol-4-yl)pyridin-3-yl)-2-oxo-2,3-dihydro-1H-benzo[d]imidazol-1-yl)methyl)cyclohexyl) nicotinamide], the IC50 was < 300 nM.
For `Cc1ncc(Cl)cc1C(=O)N[C@H]1CC[C@H](Cn2c(=O)n(-c3ccnc(-c4cnn(C)c4)c3)c3ccccc32)CC1` [Example 680, 5-chloro-2-methyl-N-((1r,4r)-4-((3-(2-(1-methyl-1H-pyrazol-4-yl)pyridin-4-yl)-2-oxo-2,3-dihydro-1H-benzo[d]imidazol-1-yl)methyl)cyclohexyl) nicotinamide] the value was < 300 nM; for `Cn1cc(-c2cccc(-n3c(=O)n(C[C@H]4CC[C@H](NC(=O)c5cc(Cl)cnc5C(F)F)CC4)c4ccccc43)c2)cn1` [Example 681, 5-chloro-2-(difluoromethyl)-N-((1r,4r)-4-((3-(3-(1-methyl-1H-pyrazol-4-yl)phenyl)-2-oxo-2,3-dihydro-1H-benzo [d]imidazol-1-yl)methyl)cyclo-hexyl)nicotinamide], < 300 nM; for `Cn1cc(-c2cncc(-n3c(=O)n(C[C@H]4CC[C@H](NC(=O)c5cc(Cl)cnc5C(F)F)CC4)c4ccccc43)c2)cn1` [Example 682, 5-chloro-2-(difluoromethyl)-N-((1r,4r)-4-((3-(5-(1-methyl-1H-pyrazol-4-yl)pyridin-3-yl)-2-oxo-2,3-dihydro-1H-benzo[d]imidazol-1-yl)methyl)cyclohexyl)nicotinamide], < 300 nM.
On to `COc1cncc(-n2c(=O)n(C[C@H]3CC[C@H](NC(=O)c4cc(Cl)cnc4C(F)F)CC3)c3ccccc32)c1` [Example 683, 5-chloro-2-(difluoromethyl)-N-((1r,4r)-4-((3-(5-methoxy-pyridin-3-yl)-2-oxo-2,3-dihydro-1H-benzo[d]imidazol-1-yl)methyl)cyclohexyl) nicotinamide], for which the IC50 was < 300 nM.
For `O=C(N[C@H]1CC[C@H](Cn2c(=O)n(-c3ccc(-n4nccn4)cc3)c3ccccc32)CC1)c1cc(Cl)cnc1C(F)F` [Example 684, N-((1r,4r)-4-((3-(4-(2H-1,2,3-triazol-2-yl)phenyl)-2-oxo-2,3-dihydro-1H-benzo[d]imidazol-1-yl)methyl)cyclo-hexyl)-5-chloro-2-(difluoro-methyl)nicotinamide] the value was < 300 nM; for `O=C(N[C@H]1CC[C@H](Cn2c(=O)n(-c3ccc(-n4nccn4)nc3)c3ccccc32)CC1)c1cc(Cl)cnc1C(F)F` [Example 685, N-((1r,4r)-4-((3-(6-(2H-1,2,3-triazol-2-yl)pyridin-3-yl)-2-oxo-2,3-dihydro-1H-benzo[d]imidazol-1-yl)methyl)cyclohexyl)-5-chloro-2-(difluoromethyl) nicotinamide], < 300 nM; for `O=C(N[C@H]1CC[C@H](Cn2c(=O)n(-c3ccnc(N4CCOCC4)c3)c3ccccc32)CC1)c1cc(Cl)cnc1C(F)F` [Example 686, 5-chloro-2-(difluoromethyl)-N-((1r,4r)-4-((3-(2-morpho-linopyridin-4-yl)-2-oxo-2,3-dihydro-1H-benzo[d]imidazol-1-yl)methyl)cyclohexyl) nicotinamide], < 300 nM.
As to `O=C(N[C@H]1CC[C@H](Cn2c(=O)n(-c3ccnc(-c4cnco4)c3)c3ccccc32)CC1)c1cc(Cl)cnc1C(F)F` [Example 687, 5-chloro-2-(difluoromethyl)-N-((1r,4r)-4-((3-(2-(oxazol-5-yl)pyridin-4-yl)-2-oxo-2,3-dihydro-1H-benzo[d]imidazol-1-yl)methyl)cyclohexyl) nicotinamide], the IC50 is < 300 nM.
For `O=C(N[C@H]1CC[C@H](Cn2c(=O)n(-c3cncc(-c4ncco4)c3)c3ccccc32)CC1)c1cc(Cl)cnc1C(F)F` [Example 688, 5-chloro-2-(difluoromethyl)-N-((1r,4r)-4-((3-(5-(oxazol-2-yl)pyridin-3-yl)-2-oxo-2,3-dihydro-1H-benzo[d]imidazol-1-yl)methyl)cyclohexyl) nicotinamide] the value was < 300 nM; for `Cc1ncc(Cl)cc1C(=O)N[C@H]1CC[C@H](Cn2c(=O)n(-c3ccnc(N4CCN(C)C4=O)c3)c3ccccc32)CC1` [Example 690, 5-chloro-2-methyl-N-((1r,4r)-4-((3-(2-(3-methyl-2-oxoimi-dazolidin-1-yl)pyridin-4-yl)-2-oxo-2,3-dihydro-1H-benzo [d]imidazol-1-yl)methyl)cyclo-hexyl)nicotinamide], < 300 nM.
The figure for `O=C(N[C@H]1CC[C@H](Cn2c(=O)n(-c3ccnc(N4CCNC4=O)c3)c3ccccc32)CC1)c1cc(Cl)cnc1C(F)F` [Example 691, 5-chloro-2-(difluoromethyl)-N-((1r,4r)-4-((2-oxo-3-(2-(2-oxoimidazolidin-1-yl)pyridin-4-yl)-2,3-dihydro-1H-benzo [d]imidazol-1-yl)methyl)cyclo-hexyl)nicotinamide] is < 300 nM; for `CNc1ccc(-n2c(=O)n(C[C@H]3CC[C@H](NC(=O)c4cc(Cl)cnc4C(F)(F)F)CC3)c3ccccc32)nc1` [Example 692, 5-chloro-N-((1r,4r)-4-((3-(5-(methylamino)pyridin-2-yl)-2-oxo-2,3-dihydro-1H-benzo[d]imidazol-1-yl)methyl)cyclohexyl)-2-(trifluoromethyl)nicotinamide] it is < 300 nM.
`COc1ccc(Cl)c(-n2c(=O)n(C[C@H]3CC[C@H](NC(=O)c4cc(Cl)cnc4C(F)F)CC3)c3ccncc32)c1` [Example 693, 5-chloro-N-((1r,4r)-4-((3-(2-chloro-5-methoxyphenyl)-2-oxo-2,3-dihydro-1H-imidazo [4,5-c]pyridin-1-yl)methyl)cyclohexyl)-2-(difluoromethyl) nicotinamide]: the IC50 is < 300 nM.
Turning to `Cc1ncc(Cl)cc1C(=O)N[C@H]1CC[C@H](Cn2c(=O)n(-c3ccc(-c4ncc[nH]4)nc3)c3ccccc32)CC1` [Example 695, N-((1r,4r)-4-((3-(6-(1H-imidazol-2-yl)pyridin-3-yl)-2-oxo-2,3-dihydro-1H-benzo[d]imidazol-1-yl)methyl)cyclohexyl)-5-chloro-2-methylnicotinamide], the IC50 is < 300 nM.
For `Cc1ncc(Cl)cc1C(=O)N[C@H]1CC[C@H](Cn2c(=O)n(-c3cccc(-c4cn[nH]c4)c3)c3ccccc32)CC1` [Example 696, N-((1r,4r)-4-((3-(3-(1H-pyrazol-4-yl)phenyl)-2-oxo-2,3-dihydro-1H-benzo[d]imidazol-1-yl)methyl)cyclohexyl)-5-chloro-2-methylnicotinamide], the IC50 is < 300 nM.
